Test results as given in article PMC8256334, “Simultaneous Determination of a Novel PD-L1 Inhibitor, IMMH-010, and Its Active Metabolite, YPD-29B, in Rat Biological Matrices by Polarity-Switching Liquid Chromatography-Tandem Mass Spectrometry: Application to ADME Studies” (Frontiers in Pharmacology, 2021).

Tests used:
Stability in rat plasma = assay type: in vitro ADME; conditions: for Accuracy (RE, %) / Measured conc.: n = 5; for stability during the sample preparation, storage and analysis: rat plasma: 4°C 4 h, −20°C 3 months, three freeze-thaw cycles, autosampler 10°C 48 h
Procedure: Plasma: IMMH-010 is an ester-containing compound. […] Therefore, heparin sodium and NaF were dissolved with 0.9% w/v sodium chloride to prepare a mixture of 0.5% heparin sodium and 500 mM NaF. All blood was withdrawn into EP tubes containing this mixture (1:9 v/v mixture:blood) followed by plasma separation. The plasma standards for IMMH-010 were prepared at 1, 2, 5, 10, 20, 80, 120 and 200 ng/ml, and those for YPD-29B were prepared at 2.5, 5, 10, 20, 50, 400, 600 and 1,000 ng/ml. QC samples were prepared at 1, 2, 40 and 160 ng/ml for IMMH-010 and 2.5, 5, 200 and 800 ng/ml for YPD-29B.
For short-term and long-term stability, plasma samples were kept at 4°C for 4 h and −20°C for 3 months, respectively. To evaluate freeze-thaw stability, samples were frozen at −20°C for 24 h and thawed at 4°C for three cycles. […] Stability assays of IMMH-010 and YPD-29B were performed at two QC levels (high and low QC) (n = 5).

[1] = test system: various carcinoma xenograft models; conditions: cited from earlier work
[2] = prepared rat plasma samples, at 15°C in auto-sampler (24 h), spiked 2 ng/ml IMMH-010, 5 ng/ml YPD-29B
[3] = prepared rat plasma samples, at 15°C in auto-sampler (24 h), spiked 160 ng/ml IMMH-010, 800 ng/ml YPD-29B
[4] = prepared rat plasma samples, at 15°C in auto-sampler (48 h), spiked 2 ng/ml IMMH-010, 5 ng/ml YPD-29B
[5] = prepared rat plasma samples, at 15°C in auto-sampler (48 h), spiked 160 ng/ml IMMH-010, 800 ng/ml YPD-29B
[6] = rat plasma, 4°C (4 h), spiked 2 ng/ml IMMH-010, 5 ng/ml YPD-29B
[7] = rat plasma, 4°C (4 h), spiked 160 ng/ml IMMH-010, 800 ng/ml YPD-29B
[8] = rat plasma, stored at −20°C (3 months), spiked 2 ng/ml IMMH-010, 5 ng/ml YPD-29B
[9] = rat plasma, stored at −20°C (3 months), spiked 160 ng/ml IMMH-010, 800 ng/ml YPD-29B
[10] = rat plasma, three freeze–thaw cycles, spiked 2 ng/ml IMMH-010, 5 ng/ml YPD-29B
[11] = rat plasma, three freeze–thaw cycles, spiked 160 ng/ml IMMH-010, 800 ng/ml YPD-29B

| Accuracy (RE, %) (Stability in rat plasma; [2]) | Measured conc. (Stability in rat plasma; [2]) | Accuracy (RE, %) (Stability in rat plasma; [3]) | Measured conc. (Stability in rat plasma; [3]) | Accuracy (RE, %) (Stability in rat plasma; [4]) | Measured conc. (Stability in rat plasma; [4]) | Accuracy (RE, %) (Stability in rat plasma; [5]) | Measured conc. (Stability in rat plasma; [5]) | stability during the sample preparation, storage and analysis (Stability in rat plasma) | Accuracy (RE, %) (Stability in rat plasma; [6]) | Measured conc. (Stability in rat plasma; [6]) | Accuracy (RE, %) (Stability in rat plasma; [7]) | Measured conc. (Stability in rat plasma; [7]) | Accuracy (RE, %) (Stability in rat plasma; [8]) | Measured conc. (Stability in rat plasma; [8]) | Accuracy (RE, %) (Stability in rat plasma; [9]) | Measured conc. (Stability in rat plasma; [9]) | Accuracy (RE, %) (Stability in rat plasma; [10]) | Measured conc. (Stability in rat plasma; [10]) | Accuracy (RE, %) (Stability in rat plasma; [11]) | SMILES | also measured |
| --- | --- | --- | --- | --- | --- | --- | --- | --- | --- | --- | --- | --- | --- | --- | --- | --- | --- | --- | --- | --- | --- |
| −1.6% | 4.92 ± 0.25 ng/mL | 5.6% | 845 ± 13 ng/mL | −12.2% | 4.39 ± 0.19 ng/mL | −1.1% | 791 ± 17 ng/mL | stable | −4.8% | 4.76 ± 0.12 ng/mL | 4.0% | 832 ± 8 ng/mL | −2.6% | 4.87 ± 0.50 ng/mL | −6.5% | 748 ± 3 ng/mL | −6.2% | 4.69 ± 0.21 ng/mL | 3.9% | O=C(O)[C@H](CO)NCc1cc(Cl)c(OCc2cccc(-c3ccccc3)c2Br)cc1OCc1cccnc1 [YPD-29B] | Measured conc. (Stability in rat plasma; [11]): 831 ± 51 ng/mL |
| −6.0% | 1.88 ± 0.21 ng/mL | −7.5% | 148 ± 4 ng/mL | 2.0% | 2.04 ± 0.07 ng/mL | −3.8% | 154 ± 4 ng/mL | stable | 2.5% | 2.05 ± 0.10 ng/mL | 8.1% | 173 ± 20 ng/mL | 12.0% | 2.24 ± 0.10 ng/mL | 3.8% | 166 ± 4 ng/mL | 5.5% | 2.11 ± 0.22 ng/mL | −1.9% | CC(C)OC(=O)C(CO)NCc1cc(Cl)c(OCc2cccc(-c3ccccc3)c2Br)cc1OCc1cccnc1 (centres unmarked) [IMMH-010, 2-[4-(2-bromo-biphenyl-3-ylmethoxy)-5-chloro-2-(pyridin-3-ylmethoxy)-benzylamino]-3-hydroxy-propionic acid isopropyl ester] | stability in rat plasma with esterase inhibitor (Stability in rat plasma; 4°C, rat plasma containing 50 mM NaF, preliminary results): stable; Measured conc. (Stability in rat plasma; [11]): 157 ± 4 ng/mL; antitumor activity [1]: significant antitumor activity |
